{
  "source": "patent US20230131219A1",
  "about": "“USE OF AGONISTS TO AUGMENT CAR T FUNCTION IN SOLID TUMORS” (The University of North Carolina at Chapel Hill, priority 2019, published 2023)",
  "assay_type_in_all_cases": "in vivo, FVB-Neu mice",
  "key": {"NT2 tumors [1]": {"tested_on": "NT2 tumors", "assay": "Orthotopic murine breast tumor model: tumor growth and survival", "protocol": "8-12 week old female FVB-Neu mice (Jackson Labs) were used under a protocol approved by University of North Carolina Institutional Animal Care and Use Committee. For tumor inoculation, mice were intradermally injected with 5×10^4 NT2 tumor cells into an axillary mammary gland. 21 days later (day 0), 1.5×10^6 CD4+ and 1.5×10^6 CD8+ CAR T cells were injected intravenously. Tumors were measured twice weekly with calipers and the tumor area calculated as length×width. The change of tumor area was determined by subtracting the tumor area before CAR T injection with the value on the day of the measurement. Per institutional guidelines, tumor-bearing mice were sacrificed when the tumor area reached 200 mm^2 or loss of more than 20% of total body weight. For tumor-bearing animals receiving combination therapy, animals underwent lymphodepletion with 5 Gy of whole body irradiation (X-RAD 320, Precision X-Ray) one day prior to CAR T injection. In the morning of day 0 mice were injected with 500 μg of DMXAA (Tocris) distal to the site of tumor growth with CAR T cells injected in the afternoon. Starting 1 day after CAR T infusion, anti-PD-1 (J43, 200 μg/mouse), anti-Gr-1 (RB6-8C5, […]), and […] (R4-6A2, 250 μg/mouse) mAb were injected intraperitoneally into respective recipients."}, "NT2 tumors [2]": {"tested_on": "NT2 tumors", "assay": "Flow cytometry of CAR T cells in tumor microenvironment and spleen", "protocol": "At indicated time points, tumors were bluntly resected and cut into small pieces and processed into a single-cell suspension using gentleMACS™ Dissociator (Miltenyi). Lymphocyte enrichment was achieved by isolating cells at the interface of 44% Percoll (Sigma-Aldrich) in media and Lympholyte-M (Cedarlane). Isolated immune cells were stained as described below. The lymphocyte fraction was not enriched in experiments where absolute cell number was determined.\nAnti-Neu CAR T cells were detected using recombinant Neu/Her2.Fc fusion protein conjugated with PE (Neu-PE) (Creative Biomart). Antibodies used in in vitro assays included anti-CD45-FITC/e450 (30-F11, Invitrogen), anti-IFN-γ-APC (XMG1.2, Invitrogen), anti-TNF-PE-Cy7 (MP6-XT22, Invitrogen) and anti-IL-17A-PE (eBio17B7, Invitrogen). Tumor-infiltrating immune cells were detected and analyzed with anti-CD45-FITC, anti-CD3-e450 (17A2, Invitrogen), anti-CD4-BV510 (GKL.5, Biolegend), anti-CD8-APC-Cy7 (53-6.7 BD Biosciences), anti-CD44-PerCP5.5 (IM7, Invitrogen), anti-CD62L-APC (MEL-14, Invitrogen), anti-CD11b-BV711 (M1/70, Invitrogen), anti-F4/80-BV605 (BM8, Invitrogen), anti-Gr-1-Percp5.5 (RB6-8C5, Invitrogen), anti-PD-1-PE-Cy7 (J43, Invitrogen), anti-CD127-BV421 (A7R34, Biolegend), anti-KLGR1-BV605 (2F1, BD Bioscience). For in vivo intracellular protein staining, anti-Foxp3-PerCP5.5 (FJK-16S. Invitrogen), anti-Ki67-APC (SOLA15, Invitrogen) were used. Dead cells were excluded with Fixable Viability Stain 700 (BD Biosciences) and Fc receptors were blocked with Fc block (BD Biosciences). Cell number was determined using Count Bright Beads (Invitrogen). Data were collected using a BD LSR-Fortessa or BD Canto cytometer (BD Biosciences). Data were analyzed with FlowJo software (Treestar)."}, "NT2 tumors [3]": {"tested_on": "NT2 tumors", "assay": "Single cell RNA sequencing of tumor infiltrating CD45+ immune cells", "details": "DMXAA with Th/Tc17 CAR T cells", "source_text": "At day 7 or day 10 after CAR-T therapy, tumors were bluntly resected and cut into small pieces and digested using Tumor Dissociation Kit, mouse (Miltenyi) in gentleMACS™ Dissociator (Miltenyi) according to manufacturer's instruction. After digestion, dead and dying cells were magnetically separated using a Dead Cell Removal Kit (Miltenyi), after which immune cells were magnetically enriched using CD45 (TIL) MicroBeads (Miltenyi). Single cells were partitioned using a Chromium Controller (10× Genomics), and gene expression sequencing libraries were generated using Chromium Single Cell 3′ Library & Gel Bead Kit v3 (10× Genomics). The libraries were pooled and sequenced using an Illumina NovaSeq 6000 (Illumina). Raw base call files were demultiplexed with Cell Ranger 3.1.0 (10× Genomics) and bcl2fastq Conversion Software v2.20.0 (Illumina).\nSingle cell results from Cell Ranger output was analyzed using Partek flow workstation (available at partek.com/application-page/single-cell-gene-expression/). In detail, single cell result from each sample of Cell Ranger output was filtered using single cell (QA/QC) filter to exclude doublets/multiplets, cells expressing genes <30 genes per cell and dead cells. Processed results were normalized using recommended method, including log normalization of gene expression and scaled to count per million. Following results were filtered out by feature (gene) that were not expressed in 99% of samples. Then the replicate samples were pooled and clustered with an unsupervised method based on PCA using the first 16 principle component. Clustered plots were visualized by t-SNE plot, where cells were clustered using shared nearest neighbor (SNN). Populations was determined by expression of key markers, including Cd3e (T cells), Adgre1 (macrophage) and Itgam and/or Itgax (myeloid cells), and T cells were further clustered by expression of Cd8 and Cd44 (activated CD8 T cells), lack of Cd44 (naive T cells), Cd4 Cd44 (activated CD4 T cells) and Cd4 Foxp3 (Treg). For comparison, samples from each treatment group was pooled by the mean expression to simulate bulk RNA-seq, and compared using GSA analysis directly. Gene hits that reached P<0.05 with more than 2 or less than −2 fold expression difference was reported and shown as a heat map for pooled samples (macrophage and myeloid cells) or Q<0.05 with 2 or −2 fold expression difference for non-pooled samples (T cells). Further detailed analysis steps can be found on Partek flow page (available at documentation.partek.com/pages/viewpage.action?pageId=12943422) and parameter setting was set as default unless indicated."}, "[4]": {"details": "DMXAA prior to Th/Tc17 CAR-T cell infusion, compared to mock transduced T cells or Th/Tc17 CAR-T cells alone"}, "[5]": {"details": "DMXAA with Th/Tc17 CAR T cells, flow cytometry"}},
  "data": [
    {"molecule": "Cc1ccc2c(=O)c3cccc(CC(=O)O)c3oc2c1C", "note": "[DMXAA]", "values": [
      {"measurement": "anti-tumor efficacy", "setting": "NT2 tumors [1]; [4]", "result": "significantly improved"},
      {"measurement": "overall survival", "setting": "NT2 tumors [1]; [4]", "result": "significantly improved"},
      {"measurement": "requirement for tumor remission", "setting": "NT2 tumors [1]; Th/Tc17 CAR-T, DMXAA, anti-PD-1 and anti-Gr1 treatment", "result": "required for tumor remission"},
      {"measurement": "persistence of CAR T cells in the TME", "setting": "NT2 tumors [2]; DMXAA given with 7/15 CAR T cells, at a site remote from the tumor", "result": "enhanced the persistence"},
      {"measurement": "number of CAR T cells", "setting": "NT2 tumors [2]; DMXAA treatment, through day 10 post-therapy", "result": "marked increase"},
      {"measurement": "number and percentage of CD4+ CAR T cells", "setting": "NT2 tumors [2]; [5]", "result": "increase in the number and percentage"},
      {"measurement": "percentage and number of CAR T cells in the TME", "setting": "NT2 tumors [2]; [5]", "result": "greatly increased"},
      {"measurement": "expression of CXCL9 and CXCL10 by myeloid cells within the TME", "setting": "NT2 tumors [3]", "result": "increased expression"},
      {"measurement": "expression of APOE, PTGS2 and AREG in myeloid cells", "setting": "NT2 tumors [3]; day 7", "result": "reduced expression"},
      {"measurement": "expression of BATF2, CXCL10, CCL5, SOCS1, NOS2 and IL12A in second myeloid cluster", "setting": "NT2 tumors [3]; day 7", "result": "greatly enhanced expression"},
      {"measurement": "expression of genes associated with M1-like macrophages including NOS2 and INHBA", "setting": "NT2 tumors [3]; day 7", "result": "increased expression"},
      {"measurement": "presence of M2-like macrophages expressing RENTLA, MMRC1, FOLR2 and IL10 in the TME", "setting": "NT2 tumors [3]; day 7", "result": "marked decrease"},
      {"measurement": "accumulation of T cells co-expressing TBX21, IFNG, CXCR3 and CCR5", "setting": "NT2 tumors [3]; day 7, CD8+ CAR T cells", "result": "enhanced the accumulation"}
    ]}
  ]
}
